Data published in the supplement of paper PMC10307832.

How the values were obtained:
Assay in all cases: relative viability (nuclei count vs DMSO), 5 days (fraction); higher = more cells survive
Dabrafenib + Alpelisib = compound: CC(C)(C)c1nc(-c2cccc(NS(=O)(=O)c3c(F)cccc3F)c2F)c(-c2ccnc(N)n2)s1 [Dabrafenib] + Cc1nc(NC(=O)N2CCC[C@H]2C(N)=O)sc1-c1ccnc(C(C)(C)C(F)(F)F)c1 [Alpelisib] (partner 2 µM)
In short: (§1)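 Lung cancer cell lines in 1536-well plates were dosed by pin tool the day after seeding, either with one drug alone or with a fixed anchor-drug dose plus five library-drug doses (not always all listed) in √10 steps. After 5 days, cells were fixed and their nuclei stained in one step (final 0.05% Triton X-100, 1% formaldehyde, 1 ug/ml Hoechst), then counted on 4× images. Relative viability is the nuclei count in treated wells divided by that in vehicle wells. Values are medians of duplicate plates.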

VX-702 + Palbociclib = compound: NC(=O)c1ccc(N(C(N)=O)c2c(F)cccc2F)nc1-c1ccc(F)cc1F [VX-702] + CC(=O)c1c(C)c2cnc(Nc3ccc(N4CCNCC4)cn3)nc2n(C2CCCC2)c1=O [Palbociclib] (partner 0.5 µM)
In short: as §1

VX-702 + AZD7762 = compound: NC(=O)c1ccc(N(C(N)=O)c2c(F)cccc2F)nc1-c1ccc(F)cc1F [VX-702] + NC(=O)Nc1cc(-c2cccc(F)c2)sc1C(=O)N[C@H]1CCCNC1 [AZD7762] (partner 0.2 µM)
In short: as §1

VX-702 + Bortezomib = compound: NC(=O)c1ccc(N(C(N)=O)c2c(F)cccc2F)nc1-c1ccc(F)cc1F [VX-702] + CC(C)C[C@H](NC(=O)[C@H](Cc1ccccc1)NC(=O)c1cnccn1)B(O)O [Bortezomib] (partner 0.002 µM)
In short: as §1

Cell Line | relative viability (Dabrafenib + Alpelisib; first compound 0.009487 µM) | relative viability (Dabrafenib + Alpelisib; first compound 0.03 µM) | relative viability (Dabrafenib + Alpelisib; first compound 0.09487 µM) | relative viability (Dabrafenib + Alpelisib; first compound 0.3 µM) | relative viability (VX-702 + Palbociclib; first compound 0.02 µM) | relative viability (VX-702 + Palbociclib; first compound 0.2 µM) | relative viability (VX-702 + Palbociclib; first compound 0.6325 µM) | relative viability (VX-702 + Palbociclib; first compound 2 µM) | relative viability (VX-702 + AZD7762; first compound 0.02 µM) | relative viability (VX-702 + AZD7762; first compound 0.2 µM) | relative viability (VX-702 + AZD7762; first compound 0.6325 µM) | relative viability (VX-702 + AZD7762; first compound 2 µM) | relative viability (VX-702 + Bortezomib; first compound 0.02 µM) | relative viability (VX-702 + Bortezomib; first compound 0.2 µM) | relative viability (VX-702 + Bortezomib; first compound 0.6325 µM) | relative viability (VX-702 + Bortezomib; first compound 2 µM) | relative viability (Dabrafenib + Alpelisib; first compound 0.003 µM)
NCI-H1734 | 0.775 | 0.585 | 0.573 | 0.688 | 0.347 | 0.288 | 0.323 | 0.308 | 0.561 | 0.448 | 0.521 | 0.465 | 0.865 | 0.844 | 0.847 | 0.738 | –
NCI-H1755 | 0.937 | 0.734 | 0.904 | 0.875 | 0.494 | 0.388 | 0.453 | 0.422 | 0.456 | 0.442 | 0.447 | 0.367 | 0.964 | 0.911 | 1.07 | 0.979 | 0.907
NCI-H1792 | 0.698 | 0.646 | 0.598 | 0.663 | 0.614 | 0.587 | 0.653 | 0.546 | 0.635 | 0.669 | 0.707 | 0.706 | 0.863 | 0.978 | 0.966 | 1.21 | –
NCI-H1915 | 1.05 | 0.979 | 0.897 | 0.984 | 0.549 | 0.499 | 0.526 | 0.546 | 0.697 | 0.728 | 0.712 | 0.718 | 1.06 | 0.893 | 0.991 | 1.01 | 1.03
NCI-H1975 | 0.687 | 0.635 | 0.624 | 0.535 | 0.497 | 0.446 | 0.518 | 0.624 | 0.663 | 0.741 | 0.763 | 0.815 | 0.367 | 0.281 | 0.353 | 0.391 | 0.68
NCI-H1993 | 0.618 | 0.534 | 0.686 | 0.778 | 0.655 | 0.696 | 0.69 | 0.745 | 0.434 | 0.694 | 0.736 | 0.65 | 0.841 | 1.01 | 0.992 | 1.01 | 0.689
NCI-H2085 | 1.02 | 0.93 | 0.997 | 0.954 | 0.507 | 0.46 | 0.506 | 0.516 | 1.04 | 1.01 | 1.06 | 1.03 | 1.08 | 1.06 | 1.03 | 1 | 0.949
NCI-H2087 | 1.12 | 1.11 | 0.823 | 0.831 | 0.203 | 0.228 | 0.214 | 0.225 | 1.53 | 1.35 | 1.54 | 1.34 | 0.824 | 0.889 | 0.818 | 0.914 | 1.19
NCI-H2126 | 0.78 | 0.74 | 0.796 | 0.777 | 0.365 | 0.323 | 0.341 | 0.35 | 0.995 | 0.979 | 1.02 | 1.05 | 1.11 | 1.06 | 1.11 | 1.25 | 0.706
NCI-H2347 | 1.01 | 0.887 | 0.965 | 0.991 | 0.455 | 0.473 | 0.466 | 0.476 | 0.746 | 0.8 | 0.787 | 0.699 | 0.995 | 0.83 | 1.02 | 1.13 | 0.561
NCI-H2405 | 0.768 | – | 0.644 | 0.701 | 0.536 | 0.515 | 0.457 | 0.493 | 0.822 | 0.766 | 0.784 | 0.826 | 1.04 | 0.604 | 0.702 | 0.977 | –
NCI-H3122 | 0.774 | 0.897 | 0.912 | 0.89 | 0.243 | 0.19 | 0.184 | 0.215 | 1.07 | 1.05 | 1.03 | 1.01 | 0.991 | 0.958 | 0.987 | 0.931 | 0.877
PC-3 [JPC-3] | 0.996 | 1.02 | 0.907 | 0.956 | 0.568 | 0.517 | 0.566 | 0.553 | 0.797 | 0.853 | 0.894 | 0.84 | 0.836 | 0.796 | 0.966 | 0.809 | 1.01
PC-14 | 0.946 | 0.938 | 0.892 | 0.833 | 0.519 | 0.595 | 0.561 | 0.732 | 0.411 | 0.353 | 0.37 | 0.265 | 0.888 | 0.852 | 0.854 | 0.991 | 0.901
RERF-LC-KJ | 0.979 | 0.781 | 0.848 | 0.953 | 1 | 1.57 | 1.14 | 1.19 | 1.25 | 0.963 | 1.11 | 1.09 | 1.18 | 1.06 | 1.2 | 1.28 | 0.73
